Data on one molecule can be found in patent US20240033321A1, “PULSATIVE GNRH ADMINISTRATION FOR TREATING FOOD INTAKE RELATED DISORDERS” (INSTITUT NATIONAL DE LA SANTÉ ET DE LA RECHERCHE MÉDICALE, priority 2020, published 2024).

Assay [1] in a line: Pulsatile Lutrelef infusion by subcutaneous programmable mini-pump in obese and lean mice, food intake followed daily. The assay is classed as in vivo. The settings on record: 14 days. The protocol:
Adult lean and obese male mice were housed under specific pathogen-free conditions in a temperature-controlled room (21-22° C.) with a 12 h light/dark cycle. Animals were provided with ad libitum access to food and water. The body weight of the animals and their food intake were followed on a daily base. Animal studies were approved by the Institutional Ethics Committee for the Care and Use of Experimental Animals of the University of Lille; all experiments were performed in accordance with the guidelines for animal use specified by the European Union Council Directive of Sep. 22, 2010 (2010/63/EU). […] To restore a control/lean pattern of GnRH/LH release in obese mice, we next implanted subcutaneous programmable mini-pumps that delivered either Lutrelef (0.25 μg of GnRH per pulse over 10 min given every 3 h) or vehicle to the mice (i.e., the pattern of secretion found in lean mice). Lutrelef is a native GnRH peptide that is clinically used to successfully treat hypogonadotropic infertility (23,24). The regimen was given for 14-days, during which body weight and food intake were followed daily.

The nature of assay [2]: Pulsatile Lutrelef delivery by minipump in Gnrh::Cre; iBot sensitive (overweight) female mice. It counts as in vivo. The settings on record: sensitive females.
The nature of assay [3]: Pulsatile Lutrelef delivery by minipump in a Gnrh::Cre; iBot sensitive (overlean) male mouse. The settings on record: one sensitive male (n=1), one pulse every 3 h. The assay is classed as in vivo, mice.

With `CC(C)C[C@H](NC(=O)CNC(=O)[C@H](Cc1ccc(O)cc1)NC(=O)[C@H](CO)NC(=O)[C@H](Cc1c[nH]c2ccccc12)NC(=O)[C@H](Cc1cnc[nH]1)NC(=O)[C@@H]1CCC(=O)N1)C(=O)N[C@@H](CCCNC(=N)N)C(=O)N1CCC[C@H]1C(=O)NCC(N)=O` [Lutrelef], the “amount of food eaten” value in assay [1] (lean mice, same pulsatile regimen, compared with vehicle-infused littermates (FIG. 9)) is “no observable effect”. Moreover, the cumulative food intake entry in assay [1] (obese male mice, 0.25 μg of GnRH per pulse over 10 min every 3 h, compared with lean mice (FIG. 9)) is on record as “normalised their cumulative food intake to levels comparable with lean mice”. Besides, the “substrate use from RER data” value in assay [2] (dark phase (feeding period) (FIG. 10B)) is “restores the use of carbohydrates during the dark phase”. In addition, the bodyweight entry is “decreased body weight” in assay [2] (one pulse every 2 h, 15 days (FIG. 10A)) and “fully rescues bodyweight” in assay [3] (15 days (FIG. 11A)). The “respiratory exchange ratio (RER)” value in assay [2] (one pulse every 2 h, 15 days (FIGS. 10B, 10C)) was “normalised”. Moreover, in assay [2] (one pulse every 2 h, 15 days (FIGS. 10D, 10E)), the food intake entry is “normalised”. The “increase in food intake” value in assay [3] (15 days (FIGS. 11B, 11C)) is 15%.
